Test results from PMC7280029, “Development of FRET‐based high‐throughput screening for viral RNase III inhibitors” (Molecular Plant Pathology, 2020).

Columns and labels:
[1] = target: CSR3 (class 1 RNase III of Sweet potato chlorotic stunt virus) (Sweet potato chlorotic stunt virus, UniProt Q8JJW8); experiment: biochemical; type: biochemical; conditions: for DSS (drug-sensitivity score): dose-response 1.25 nM to 50 µM, Breeze software
Protocol: A dose–response assay was carried out with the top 109 compounds (concentration range 1.25 nM to 50 µM). The data were analysed with Breeze software, which generates dose–response curves and calculates the half‐maximal inhibitory concentration (IC50) and drug‐sensitivity score (DSS) for every compound. Considering that IC50 alone cannot comprehensively evaluate the drug sensitivity of the dose–response model in HTS assay, DSS was developed by Yadav et al. (2014) as a systematic algorithmic solution that integrated five factors: IC50, the slope at IC50, minimum activity level, and top and bottom asymptotes of dose–response model. The DSS values ranged from 0 to 19.2. The three structures differ (Figure 6, starred compounds). […] Table S1 lists the 109 compounds from the dose–response screens for CSR3, including information for compound identity, IC50, DSS, and dose–response curves.
For the HTS assay, plates (10 µM compound in each well) were prepared with an Echo liquid handler (Labcyte) at the FIMM (Institute for Molecular Medicine Finland) High‐Throughput Biomedicine unit. CSR3 and annealed siRNA were diluted to […] and 750 nM, respectively, in reaction buffer (50 mM Tris‐HCl, 125 mM NaCl, 25 mM MgCl2, pH 8.0). CSR3 solutions were dispensed into the wells of plates (10 µl CSR3 per well). Plates were incubated at room temperature for 15 min with shaking (450 rpm). Subsequently, 10 µl substrate was dispensed per well. […] The dose–response assay with six compound concentrations (range, 1.25 nM to 50 µM) was carried out with the same conditions. Plates were sealed, centrifuged briefly, and then, immediately analysed with a PHERAstar FS (BMG Labtech) with a fluorescence‐intensity optic module (excitation at 485 ± 6 nm, detection at 520 ± 5 nm) for 12 cycles (c.17 min total) at 37 °C. All dispensing was done using the BioTek MultiFlo FX. All screening plates contained positive‐control wells (lacking CSR3) and negative‐control wells (25 nl dimethyl sulphoxide, vehicle), which were used as standards to calculate the PI of compounds.
The PI of each compound for CSR3 was calculated according to Equation 2. A PI threshold of 30% was used as the cut‐off value for one concentration of HTS. Furthermore, the dose–response curves of PI in function of compound concentration were evaluated with DSS according to Yadav et al. (2014).(2) PI=1001-Ss-Sc+/SC--Sc+% where Sc + is the mean of the slope of the positive control, Sc − is the mean of the slope of the negative control, and Ss is the mean of the slope of samples.

[2] = system: HIV-1 reverse transcriptase; set-up: method as in PubChem database; conditions: ref PubChem database; cited from earlier work
[3] = system: human heat shock 70 kDa protein; set-up: method as in PubChem database; conditions: ref PubChem database; cited from earlier work
[4] = system: Cytokine/receptor Binary Complex of humans (4KC3_B); set-up: method as in PubChem database; conditions: ref PubChem database; cited from earlier work
[5] = system: CSR3; experiment: CSR3 kinetics with labelled siRNA substrate (Michaelis-Menten); type: biochemical, Sweet potato chlorotic stunt virus; conditions: 50 nM CSR3, 50-800 nM labelled siRNA
Protocol: To monitor the kinetics of CSR3 endoribonuclease activity, two‐fold dilutions (yielding 50–800 nM) of the labelled siRNA substrate were tested with 50 nM CSR3. As expected, start points of raw fluorescence increased with the FRET‐siRNA concentration (Figure 4a). Moreover, the slope of the raw fluorescence between all neighbouring detection cycles was calculated for all cycle numbers. […] Finally, the maximal slope for every labelled siRNA concentration was used to determine the catalytic rate of CSR3.
The HTS assay was designed to maximize siRNA cleavage by CSR3. We used a donor–quencher fluorogenic siRNA as the substrate for CSR3. […] To assess CSR3 activity, five labelled siRNA concentrations (50–800 nM) were used with 50 nM CSR3. To test the reproducibility and precision of the assay, full plates containing only negative (50 nM CSR3) and positive reactions (lacking CSR3) were tested with 375 nM labelled siRNA. […]
The kinetic constant (K d) for CSR3 was calculated using the three‐parameter Michaelis–Menten model (MM.3) included in the R package dcr (Ritz et al., 2015). The statistical significance of differences between values was assessed with one‐way ANOVA using the aov function in the R package.

Chain of CSR3 (class 1 RNase III of Sweet potato chlorotic stunt virus) (Q8JJW8 entry or part of it): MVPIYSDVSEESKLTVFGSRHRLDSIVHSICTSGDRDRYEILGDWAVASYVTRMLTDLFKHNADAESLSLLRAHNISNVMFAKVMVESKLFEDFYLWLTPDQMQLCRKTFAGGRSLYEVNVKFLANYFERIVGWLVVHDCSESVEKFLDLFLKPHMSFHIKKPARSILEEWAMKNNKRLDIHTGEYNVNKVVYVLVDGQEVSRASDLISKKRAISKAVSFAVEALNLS

Compound	IC50 [1] [nM]	DSS (drug-sensitivity score) [1]	also measured
CN1CCc2cccc3c2[C@H]1Cc1ccc(O)c(O)c1-3 [FIMM000096]	2900	12.7	
O=C1c2c(O)ccc(O)c2C(=O)c2c(NCCNCCO)ccc(NCCNCCO)c21 [FIMM000490]	1810	14.9	
O=C(O)c1ccc(C2Nc3c(Br)cccc3C3C=CCC32)cc1 (stereo not drawn) [FIMM022230]	1860	13.8	
Cc1ccc(C)c(C(=O)CSc2nnc[nH]2)c1 [FIMM027745]	647	19.2	activity in inhibitor screen [2]: inactive; activity in inhibitor screen [3]: inactive
CCn1c(C)nc2cc(S(N)(=O)=O)ccc21 [FIMM028155]	782	17.6	
Cc1ccc([C@@H]2Nc3ccc(C(=O)O)cc3[C@@H]3C=CC[C@@H]32)cc1 [FIMM031755]	1270		activity in inhibitor screening assay [4]: effective at micromolar concentrations
CN1C(=O)C(=CNc2ccc(F)cc2)C(=O)N(C)C1=O [FIMM059523]	> 50000	0	
O=S(=O)(O)c1cccc2cc(O)ccc12 [FIMM072577]	699	18.3	
c1cnc2[nH]c(Nc3ccc(Nc4nc5cccnc5[nH]4)cc3)nc2c1 [FIMM092170]	2840	12.9	
CCn1c(S)nnc1CCNC(=O)c1cccs1 [FIMM099662]	3070	11.7	
COc1cc(C=C2C(=O)NC(=S)NC2=O)ccc1OCc1ccccc1[N+](=O)[O-] [FIMM101864]	3850	11.2	
CC(C)(C)C1CCc2c(sc(NC(=O)C3CC=CCC3C(=O)O)c2C(N)=O)C1 (stereo not drawn) [FIMM104970]		0	
labelled siRNA: 22 bp siRNA with two-nucleotide 3' overhang, FAM reporter and BHQ1 quencher on the sense strand; CSR3 substrate (sense CGUAGUGGAAGUGGGAGAGGTC; antisense CCUCUCCCACUUCCACUACGTG; FAM reporter and BHQ1 quencher on sense strand, positions not given here)			Km ([5]; Michaelis-Menten model MM.3): 0.229 µM; Vmax ([5]; maximal slope): 22.47
